Tests used:
[1] = system: Salmonella enterica T-2a – tet(X4); test: microbe, parasite or virus in culture; assay type: cell-based; conditions: for MIC: Salmonella enterica, read-out: Tet(X) Inhibitor MIC; for Combination (Antibiotic/Inhibitor) MICs: inhibitor / Combination (Antibiotic/Inhibitor) MICs: antibiotic: lowest FICI
Procedure: (§1) MIC tests and checkerboard assays were performed in U-bottom, 96-well microtiter plates using a modified broth microdilution protocol following CLSI guidelines. Cation-adjusted Mueller-Hinton Broth (CAMHB) was prepared fresh on the day of testing.[74] In brief, assays were set up in a total volume of 100 μL per well and titrations comprised seven 2-fold dilutions of inhibitors and ten 2-fold dilutions of tigecycline in CAMHB. Bacterial colonies were selected from an overnight culture on MHA plates (supplemented with 0.2%w/vL-arabinose for E. coli TOP10 containing pBAD-TOPO-Tet(X4)) and were suspended in 0.9% saline solution to achieve a 0.5 McFarland standard. A 100 μL aliquot of this suspension was then diluted into 9.9 mL of CAMHB to yield approximately 1.5 × 10^6 cfu mL^−1. 50 μL of the suspension was then added to each well of a microtiter plates. Plates were incubated at 37 °C for 18 h. At least 2 replicates were conducted for each combination. E. coli TOP10 + pBAD-TOPO-Tet(X4) cells were grown in the absence and presence of 0.2%w/vL-arabinose. Analysis of the MIC and checkerboard results were carried out by visual inspection of growth, with and without resazurin dye, an oxidation–reduction indicator.[75] As a measure of synergy, fractional inhibitory concentration index (FICI) was calculated as FICA + FICB, where FICA and FICB are the MICcombination/MICalone for each agent, respectively.[76] Results were interpreted as follows: synergistic (<0.5), indifferent (1.0–4.0) or antagonistic (>4.0).[64] In cases where the MIC exceeded or was below the measured range, the borderline value was taken to calculate the FIC index.

[2] = system: Acinetobacter spp. NT3-1 – tet(X3); test: microbe, parasite or virus in culture; assay type: cell-based; conditions: for MIC: Acinetobacter, read-out: Tet(X) Inhibitor MIC, alone; for Combination (Antibiotic/Inhibitor) MICs: inhibitor / Combination (Antibiotic/Inhibitor) MICs: antibiotic: lowest FICI
Procedure: as §1

Tet(X4) = Tet(X4) (Escherichia coli, UniProt A0A3T0V9Y5); test: FP competitive displacement of probe 6; assay type: binding; conditions: for IC50: IC50app, 25 nM 6, 40 nM Tet(X4), 5 mM MgCl2, 1 μM FAD, 100 mM Tris pH 7.0, 0.01% Triton X-100
Method in brief: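 FP displacement of probe 6 (added as 50 nM solution) from Tet(X4) (2× mix: 80 nM enzyme, 2 μM FAD, 10 mM MgCl2), 30 min at ambient temperature. Dose-response used 3-fold, 10-point DMSO series (top 5 or 0.5 mM stock). IC50^app came from a Hill fit of control-normalised response. Library screening used 10 μM compound, 0.1% DMSO, […].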

[3] = system: tigecycline resistant Salmonella, E. coli, Acinetobacter and Proteus isolates containing tet(X) genes; test: Checkerboard assays across the panel of isolates; assay type: cell-based; conditions: against all of the strains tested
Procedure: as §1, with “Analysis of the MIC and checkerboard results were carried out by visual inspection of growth, with and without resazurin dye, an oxidation–reduction indicator.[75]” left out, “Results were interpreted as follows: synergistic (<0.5), indifferent (1.0–4.0) or antagonistic (>4.0).[64]” left out

[4] = inhibitor in combination with tigecycline
[5] = tigecycline in combination with the inhibitor

`Cc1c2c(c(O)c3c(O)cccc13)C(=O)[C@]1(O)C(=O)C(C(N)=O)=C(O)[C@@H](N(C)C)[C@@H]1C2` [Anhydrotetracycline] was tested, and the MIC [1] was 32 µg/mL, the “Combination (Antibiotic/Inhibitor) MICs: inhibitor” value [1, 4] was 16 µg/mL and the “Combination (Antibiotic/Inhibitor) MICs: antibiotic” value [1, 5] was 8 µg/mL. The FICI ([1]; with tigecycline) was 0.8, the Outcome ([1]; with tigecycline) was “indifferent (indifferent (0.5-4.0))” and the MIC ([2]; Acinetobacter spp. NT3-1) was 2 µg/mL. For the same molecule, the “Combination (Antibiotic/Inhibitor) MICs: inhibitor” value [2, 4] was 0.25 µg/mL, the “Combination (Antibiotic/Inhibitor) MICs: antibiotic” value [2, 5] was 0.5 µg/mL and the FICI ([2]; with tigecycline) was 0.3. The Outcome ([2]; with tigecycline) was “synergy (synergy (< 0.5))”, the IC50 (Tet(X4); FP assay) was 0.0268 ± 0.0053 µM and the “displacement of probe 6 / competitive binding (in words)” value (Tet(X4); up to a maximum concentration of 100 μM) was “clear dose-dependent displacement”.

With `O=C(c1ccc(OCCN2CCCCC2)cc1)c1c(-c2ccc(O)cc2)sc2cc(O)ccc12` [Raloxifene] the MIC [1] was > 128 µg/mL, the “Combination (Antibiotic/Inhibitor) MICs: inhibitor” value [1, 4] was 128 µg/mL and the “Combination (Antibiotic/Inhibitor) MICs: antibiotic” value [1, 5] was 16 µg/mL. The FICI ([1]; with tigecycline) was 1.5, the Outcome ([1]; with tigecycline) was “indifferent (indifferent (0.5-4.0))” and the MIC ([2]; Acinetobacter spp. NT3-1) was 4 µg/mL. The “Combination (Antibiotic/Inhibitor) MICs: inhibitor” value [2, 4] was 2 µg/mL, the “Combination (Antibiotic/Inhibitor) MICs: antibiotic” value [2, 5] was 2 µg/mL and the FICI ([2]; with tigecycline) was 1. For the same molecule, the Outcome ([2]; with tigecycline) was “indifferent (indifferent (0.5-4.0))” and the IC50 (Tet(X4); Tet(X4) (Polarization)) was 19.8 ± 5.4 µM.

With `[H]/N=C(/NCCCCC)N/N=C/c1c[nH]c2ccc(OC)cc12` [Tegaserod] the “reduction of the tigecycline MIC in combination” value [3] was 2–8 fold, the MIC [1] was 32 µg/mL and the “Combination (Antibiotic/Inhibitor) MICs: antibiotic” value ([1]; doxycycline with tegaserod) was 8 µg/mL. For the same molecule, the “Combination (Antibiotic/Inhibitor) MICs: inhibitor” value [1, 4] was 8 µg/mL, the “Combination (Antibiotic/Inhibitor) MICs: inhibitor” value ([1]; tegaserod with doxycycline) was 16 µg/mL and the “Combination (Antibiotic/Inhibitor) MICs: inhibitor” value ([1]; tegaserod with tetracycline) was 16 µg/mL. The “Combination (Antibiotic/Inhibitor) MICs: antibiotic” value ([1]; tetracycline with tegaserod) was 32 µg/mL, the “Combination (Antibiotic/Inhibitor) MICs: antibiotic” value [1, 5] was 8 µg/mL and the FICI ([1]; with doxycycline) was 0.8. For the same molecule, the Outcome ([1]; with doxycycline) was “indifferent (indifferent (0.5-4.0))”, the FICI ([1]; with tetracycline) was 0.8 and the Outcome ([1]; with tetracycline) was “indifferent (indifferent (0.5-4.0))”. The FICI ([1]; with tigecycline) was 0.5, the Outcome ([1]; with tigecycline) was “indifferent (indifferent (0.5-4.0))” and the MIC ([2]; Acinetobacter spp. NT3-1) was 4 µg/mL. The “Tet(X) inhibitor MIC” value ([2]; alone, Acinetobacter spp. NT3-1) was 8 µg/mL, the “Combination (Antibiotic/Inhibitor) MICs: antibiotic” value ([2]; doxycycline with tegaserod) was 4 µg/mL and the “Combination (Antibiotic/Inhibitor) MICs: inhibitor” value [2, 4] was 2 µg/mL. For the same molecule, the “Combination (Antibiotic/Inhibitor) MICs: inhibitor” value ([2]; tegaserod with doxycycline) was 4 µg/mL, the “Combination (Antibiotic/Inhibitor) MICs: inhibitor” value ([2]; tegaserod with tetracycline) was 4 µg/mL and the “Combination (Antibiotic/Inhibitor) MICs: antibiotic” value ([2]; tetracycline with tegaserod) was 16 µg/mL. The “Combination (Antibiotic/Inhibitor) MICs: antibiotic” value [2, 5] was 0.5 µg/mL, the FICI ([2]; with doxycycline) was 1.0 and the Outcome ([2]; with doxycycline) was “indifferent (indifferent (0.5-4.0))”. For the same molecule, the FICI ([2]; with tetracycline) was 0.8, the Outcome ([2]; with tetracycline) was “indifferent (indifferent (0.5-4.0))” and the FICI ([2]; with tigecycline) was 0.6. The Outcome ([2]; with tigecycline) was “indifferent (indifferent (0.5-4.0))” and the IC50 (Tet(X4); Tet(X4) (Polarization)) was 43.2 ± 2.2 µM.

For `CN1CCN(CCCN2c3ccccc3Sc3ccc(C(F)(F)F)cc32)CC1` [Trifluoperazine], the MIC [1] was > 128 µg/mL, the “Combination (Antibiotic/Inhibitor) MICs: inhibitor” value [1, 4] was 64 µg/mL and the “Combination (Antibiotic/Inhibitor) MICs: antibiotic” value [1, 5] was 16 µg/mL. For the same molecule, the FICI ([1]; with tigecycline) was 1, the Outcome ([1]; with tigecycline) was “indifferent (indifferent (0.5-4.0))” and the MIC ([2]; Acinetobacter spp. NT3-1) was 16 µg/mL. The “Combination (Antibiotic/Inhibitor) MICs: inhibitor” value [2, 4] was 16 µg/mL, the “Combination (Antibiotic/Inhibitor) MICs: antibiotic” value [2, 5] was 4 µg/mL and the FICI ([2]; with tigecycline) was 2. For the same molecule, the Outcome ([2]; with tigecycline) was “indifferent (indifferent (0.5-4.0))” and the IC50 (Tet(X4); Tet(X4) (Polarization)) was 55.6 ± 14.2 µM.
